Experimental data as given in patent US7700786B2, “Pyrazole derivative, intermediate therefor, processes for producing these, and herbicide containing these as active ingredient” (Sagami Chemical Research Center, priority 2001, dated 2010).

Key:
[1] = test system: Echinochloa oryzicola; test: Herbicidal efficacy test by pre-emergence treatment under submergence condition; assay type: in vivo; conditions: 15th day after treatment, ratings of 1 to 5
Text: (§3) A 1/10,000-are pot was filled with paddy field soil, and, after plowing, seeds of Echinochloa oryzicola, Cyperus difformis, Monochoria vaginalis, Scirpus juncoides, Eleocharis acicularis and other annual broadleaf weeds such as Lindernia procumbens, Rotala indica and Elatine triandra were sown. Rice (oryza sativa) seedlings (cultiver “Koshihikari”) at a 2.5-leaf stage were transplanted and kept under a submergence condition. After one day, the wettable powder or emulsifiable concentrate of the compound of the present invention, prepared according to Preparation Example, was diluted and dropped on a water surface at a predetermined dose.

[2] = test system: Rice (oryza sativa) seedlings (cultiver Koshihikari); conditions: in vivo
Text: as §3

[3] = test system: Amaranthus viridis; test: Herbicidal efficacy test by soil treatment before germination under upland field condition; assay type: in vivo; conditions: dose 1 kg/ha; 21st day after treatment; ratings of 1 to 5; further: key: 1 shows no influence; 5 shows complete die
Text: (§1) A vat having an area of 5×10 cm^2 and a depth of 5 cm was filled with upland field soil, and seeds of Chenopodium album, Echinochloa crus-galli, Amaranthus viridis, Digitaria ciliaris and sweet corn (Zea mays) were sown thereon and covered with soil by a depth of 0.5 cm.

[4] = test system: Chenopodium album; test: as above; assay type: in vivo; conditions: dose 1 kg/ha; 21st day after treatment; ratings of 1 to 5
Text: as §1

[5] = test system: Digitaria ciliaris; test: as above; assay type: in vivo; conditions: dose 1 kg/ha; 21st day after treatment; ratings of 1 to 5
Text: as §1

[6] = test system: Echinochloa crus-galli; test: as above; assay type: in vivo; conditions: dose 1 kg/ha; 21st day after treatment; ratings of 1 to 5
Text: as §1

[7] = test system: Eleocharis acicularis; test: Herbicidal efficacy test by pre-emergence treatment under submergence condition; assay type: in vivo; conditions: 15th day after treatment, ratings of 1 to 5; further: key: 1 shows no influence; 5 shows complete die
Text: as §3

[8] = test system: Amaranthus viridis; test: Herbicidal efficacy test by foliar treatment after germination under upland field condition; assay type: in vivo; conditions: dose 1 kg/ha, rated 1 to 5 on the 14th day after treatment; further: key: 1 shows no influence; 5 shows complete die
Text: (§2) A vat having an area of 5×10 cm^2 and a depth of 5 cm was filled with upland field soil, and seeds of Chenopodium album, Echinochloa crus-galli, Amaranthus viridis and Abutilon theophrasti were sown thereon and covered with soil by a depth of 0.5 cm. Water was sprayed as required to grow them for 14 days.

[9] = test system: Chenopodium album; test: as above; assay type: in vivo; conditions: dose 1 kg/ha, rated 1 to 5 on the 14th day after treatment
Text: as §2

[10] = test system: Echinochloa crus-galli; test: as above; assay type: in vivo; conditions: dose 1 kg/ha, rated 1 to 5 on the 14th day after treatment
Text: as §2

[11] = test system: Abutilon theophrasti; test: as above; assay type: in vivo; conditions: Dc: Digitaria ciliaris (table footnote; method names Abutilon theophrasti), dose 1 kg/ha, rated 1 to 5 on the 14th day after treatment
[12] = test system: Scirpus juncoides; test: Herbicidal efficacy test by pre-emergence treatment under submergence condition; assay type: in vivo; conditions: 15th day after treatment, ratings of 1 to 5
[13] = test system: Monochoria vaginalis; test: as above; assay type: in vivo; conditions: 15th day after treatment, ratings of 1 to 5; further: key: 1 shows no influence; 5 shows complete die
Text: as §3

[14] = test system: Cyperus difformis; test: as above; assay type: in vivo; conditions: 15th day after treatment, ratings of 1 to 5; further: key: 1 shows no influence; 5 shows complete die
Text: as §3

[15] = test system: annual broadleaf weeds such as Lindernia procumbens, Rotala indica and Elatine triandra; test: as above; assay type: in vivo; conditions: 15th day after treatment, ratings of 1 to 5
[16] = test system: sweet corn (Zea mays); test: Injury to corn, soil treatment before germination under upland field condition; assay type: in vivo; conditions: dose 1 kg/ha; 21st day after treatment; ratings of 1 to 5
Text: as §1
Wherever Herbicidal activity Ca is given: key: 1 shows no influence; 5 shows complete die.

Structure (SMILES)	Herbicidal efficacy Eo ([1]; dose 0.5 kg/ha)	Herbicidal efficacy Eo ([1]; dose 1 kg/ha)	Herbicidal activity Av [3]	Herbicidal activity Ca [4]	Herbicidal activity Dc [5]	Herbicidal activity Ec [6]	Herbicidal efficacy Ea ([7]; dose 0.5 kg/ha)	Herbicidal efficacy Ea ([7]; dose 1 kg/ha)	Herbicidal activity Av [8]	Herbicidal activity Ca [9]	Herbicidal activity Ec [10]	Herbicidal activity Dc [11]	Herbicidal efficacy Sj ([12]; dose 0.5 kg/ha)	Herbicidal efficacy Sj ([12]; dose 1 kg/ha)	Herbicidal efficacy Mv ([13]; dose 0.5 kg/ha)	Herbicidal efficacy Mv ([13]; dose 1 kg/ha)	Herbicidal efficacy Cd ([14]; dose 0.5 kg/ha)	Herbicidal efficacy Cd ([14]; dose 1 kg/ha)	Herbicidal efficacy Blw ([15]; dose 0.5 kg/ha)	Herbicidal efficacy Blw ([15]; dose 1 kg/ha)	further results
Cc1cc(Oc2c(Cl)cc(C(F)(F)F)cc2Cl)nn1C(N)=O [Compound 3-3]	5	5	5	5	4.5	3.5	5	5	5	5	4.5	5	5	5	5	5	5	5	5	5	Injury Os [2]: 1.5; Injury Zm [16]: 1.5
CCCNC(=O)n1nc(Oc2c(Cl)cc(C(F)(F)F)cc2Cl)cc1C [Compound 3-74]	5	5	5	5	5	4.9	5	5	5	5	4.9	5	5	5	5	5	5	5	5	5	Injury Os [2]: 1.8; Injury Zm [16]: 1
Cc1cc(Oc2c(Cl)cc(C(F)(F)F)cc2Cl)nn1C(=O)NCCBr [Compound 3-146]	5	5	–	–	–	–	5	5	–	–	–	–	5	5	5	5	5	5	5	5	Injury Os [2]: 1
COCNC(=S)n1nc(Oc2c(Cl)cc(C(F)(F)F)cc2Cl)cc1C [Compound 3-169]	5	5	–	–	–	–	5	5	–	–	–	–	4	4.2	5	5	5	5	5	5	Injury Os [2]: 1
CNC(=O)n1nc(Oc2c(Cl)cc(C(F)(F)F)cc2Cl)c(Cl)c1C [Compound 3-249]	5	5	5	5	5	4.5	5	5	5	5	5	5	5	5	5	5	5	5	5	5	Injury Zm [16]: 1.2
CCNC(=O)n1nc(Oc2c(Cl)cc(C(F)(F)F)cc2Cl)c(Cl)c1C [Compound 3-253]	5	5	5	5	5	4	5	5	5	5	5	5	5	5	5	5	5	5	5	5	Injury Zm [16]: 1.5
CCNC(=O)n1nc(Oc2c(Cl)cc(C(F)(F)F)cc2Cl)cc1CC [Compound 3-330]	5	5	5	5	5	3.5	5	5	5	5	5	5	5	5	5	5	5	5	5	5	Injury Zm [16]: 1.5
